Measured values reported in patent publication US20140325707A1, “GROWTH ENHANCEMENT OF PLANTS” (Yissum Research Development Company of the Hebrew …, priority 2011, published 2014).

Assays:
[1] = tested on: tomato (Solanum lycopersicum) cv Moneymaker; assay: Growth assay of tomato seedlings from seeds primed with IR-PRN; format: in vivo
Procedure: Seeds of tomato (Solanum lycopersicum) cv Moneymaker were primed with a priming solution containing 25% PEG without (control) or with IR-PRN.
The seeds were sown in randomly placed small tagged pots containing potting mixture, in a glasshouse at a night and day temperature of 15-18° C. and 22-27° C., respectively. Plant height, weight and dry weight were measured when the plant reached 3-5 true leaves. Typically the seedlings were 4-5 weeks old.

R. solani = assay: Assay for R. solani resistance (damping-off disease) of tomato plants; format: in vivo; details: control plants wilted within 2 weeks
Procedure: Roots of tomato (Solanum lycopersicum) seedlings were immersed in a water solution of IL-60-BS and IR-PRN or IR-PRN-GFP (1 μg/plantlet) until the entire solution was sucked up by the plants. The plants were then potted and kept in the greenhouse at 24° C. Tomato seedlings, 2 weeks after application of IL-60-BS and IR-PRN, were transferred to pots with 0.5 kg of soil mixed with 0.5 g of R. solani mycelium. Control plants (not carrying PRN) were similarly treated. Plants were kept for 2 to 3 weeks at 24° C. until symptom appearance.

Rhizoctonia solani = assay: Bioassay for inhibition of Rhizoctonia solani in vitro; format: cell-based; details: plant-extracted, HPLC-purified PRN; 28° C., 3 days
Procedure: R. solani was cultured on potato dextrose agar at 28° C. A disk (30 mm in diameter) of R. solani-containing agar was transferred to another Petri dish containing potato dextrose agar and 10 μl of HPLC elution buffer (negative control), 10 μl of various plant extracts, or 10 μl containing 0.2 mg of synthetic PRN in elution buffer (Sigma, positive control). Inhibition of fungal growth was determined after incubation at 28° C. for 3 days.

[2] = plant expressing PRN, seedlings at 3-5 true leaves, 4-5 weeks old

O=[N+]([O-])c1c(Cl)cccc1-c1c[nH]cc1Cl [PRN, 3-chloro-4-(2′-nitro-3′-chlorophenyl)-pyrrole]
Dry weight [1, 2]: 3.6 gr | Dry weight (% of fresh weight) [1, 2]: 42.7 % of fresh weight | Fresh weight [1, 2]: 9.2 gr | Height [1, 2]: 11 cm | Growth Enhancement (%), Dry weight ([1]; relative to control plant): 276.9% | Growth Enhancement (%), Dry weight (% of fresh weight) ([1]; relative to control plant): 159.9% | Growth Enhancement (%), Fresh weight ([1]; relative to control plant): 191.7% | Growth Enhancement (%), Height ([1]; relative to control plant): 134.1% | State of plants in R. solani-infested soil (R. solani): remained healthy | Inhibition of growth of R. solani (Rhizoctonia solani): inhibitory
